From paper PMC5085761 (International Journal of Molecular Sciences, 2016)

How the values were obtained:
[1] = tested on: LLC-PK1 monolayer model; test: Inhibition study of [14C]fluciclovine apical-to-basal transport, LLC-PK1 monolayer model; details: 1 mM inhibitor, 10 µM [14C]fluciclovine
Text: Natural and synthetic amino acids were used as inhibitors: MeAIB (2-(methylamino)-isobutyric acid, for system A in the presence of Na^+); Thr (L-threonine, for system ASC in the presence of Na^+); and BCH (2-aminobicyclo[2,2,1]heptane-2-carboxylic acid, for system L in the absence of Na^+).

[2] = tested on: LLC-PK1 monolayers; test: Apical-to-basal transport through LLC-PK1 monolayers; assay type: in vitro ADME, pig
Procedure: The LLC-PK1 cell line was purchased from DS Pharma Biomedical (Osaka, Japan). Cells were maintained in Dulbecco’s modified Eagle’s medium (DMEM; Life Technologies Japan, Tokyo, Japan) supplemented with 10% (v/v) fetal bovine serum (American Type Culture Collection, Manassas, VA, USA) and antibiotics (100 U/mL penicillin and 100 μg/mL streptomycin (Life Technologies Japan)). Cells were cultured at 37 °C under an atmosphere containing 5% CO2 before the start of the experiments.
Cells were seeded at a density of 1.5 × 10^6 cells/0.25 mL on the membrane of cell culture inserts fitting 24-well plates (upper compartment, apical side; Becton Dickinson, Franklin Lakes, NJ, USA). Flat-bottom 24-well tissue culture plates (Becton Dickinson) containing 0.95 mL of culture medium per well were used as the basolateral side (bottom compartment).
LLC-PK1 monolayer formation was monitored by the measurement of TER using an EVOM-2 and Endohm24 (World Precision Instruments, Inc., Sarasota, FL, USA) according to the manufacturer’s protocol. […] [^3H]Mannitol transport was measured as described in Section 4.3 for the validation of tight junction formation because mannitol passes through the cell monolayers via the paracellular route.
Experimental procedures were performed as described previously with minor modifications. After cultivation as described above, the culture media in both compartments were replaced with Na^+ buffer (137 mM NaCl, 2.7 mM KCl, 8 mM Na2HPO4, 1.5 mM KH2PO4, 5.6 mM D-glucose, 0.9 mM CaCl2, and 0.5 mM MgCl2; pH 7.4 at 37 °C), and the cells were preincubated for 10 min at 37 °C under normal air conditions. After the buffer was removed from each compartment, the permeability experiments were started with the addition of 0.25 mL of Na^+ buffer containing radiolabeled tracers (final concentration: 81 nM for [^3H]mannitol and 10 μM for the ^14C-labeled amino acid tracers) in each upper compartment, and 0.95 mL of Na^+ buffer in each bottom compartment. The inserts were placed into new 24-well culture plates containing 0.95 mL/well of Na^+ buffer after 5, 15, 30, 60, and 90 min of incubation. Subsequently, the cells were incubated up to 120 min at 37 °C under normal air conditions.
The apical-to-basal permeability was measured by sampling an aliquot of the buffer from the upper and bottom compartment at the indicated times. To evaluate intracellular accumulation, the cells were lysed in 0.5 mL of 0.1N NaOH at room temperature following rapid washing of the cells with ice-cold Na^+ buffer. The radioactivity of each aliquot was measured with an LSC6000SC (Beckman Coulter, Inc., Brea, CA, USA) or Tri-Carb 2910TR liquid scintillation counter (PerkinElmer) using Ultima Gold (PerkinElmer).

[3] = tested on: alanine-serine-cysteine transporter 2 (ASCT2); design: method as in PMID 23647854; details: cited from earlier work
[4] = tested on: L-type amino acid transporter 1 (LAT1); design: method as in PMID 23647854; details: cited from earlier work
[5] = tested on: sodium-coupled neutral amino acid transporter 2 (SNAT2); design: method as in PMID 23647854; details: cited from earlier work
[6] = tested on: [18F]fluciclovine uptake; design: method as in PMID 21536930; details: cited from earlier work
[7] = substrate: N[C@]1(C(=O)O)C[C@@H](F)C1; test: cells, lysate or membranes named; details: not significant vs control vesicles, pH 7.0

NC1(C(=O)O)CC2CCC1C2 (stereo not drawn) [BCH, 2-aminobicyclo[2,2,1]heptane-2-carboxylic acid]
inhibition of [14C]fluciclovine apical-to-basal transport ([1]; Na+-free buffer): no significant inhibition

CNC(C)(C)C(=O)O [MeAIB, 2-(methylamino)-isobutyric acid]
inhibition of [14C]fluciclovine apical-to-basal transport ([1]; Na+ buffer): no significant inhibition

C[C@@H](O)[C@H](N)C(=O)O [Thr, L-threonine]
inhibition of [14C]fluciclovine apical-to-basal transport ([1]; Na+ buffer): significant inhibition

OC[C@@H](O)[C@@H](O)[C@H](O)[C@H](O)CO [[^3H]mannitol, D-[1-^3H(N)]mannitol]
mean percentage of [3H]mannitol permeation ([2]; day 1 after seeding): 19.3%
mean percentage of [3H]mannitol permeation ([2]; day 4 after seeding): 1.23%
mean percentage of [3H]mannitol permeation ([2]; day 7 after seeding): 2.29%

N[C@]1(C(=O)O)C[C@@H](F)C1 [[^18F]fluciclovine, trans-1-amino-3-[^18F]fluorocyclobutanecarboxylic acid]
Km [3]: 92 µM
Km [4]: 230 µM
Km [5]: 222 µM

Nc1ccc(C(=O)NCC(=O)O)cc1 [p-aminohippurate]
inhibition of [18F]fluciclovine uptake [6]: approximately 5%

B1: human BCRP (Homo sapiens) (protein)
chain: MSSSNVEVFIPVSQGNTNGFPATASNDLKAFTEGAVLSFHNICYRVKLKSGFLPCRKPVEKEILSNINGIMKPGLNAILGPTGGGKSSLLDVLAARKDPSGLSGDVLINGAPRPANFKCNSGYVVQDDVVMGTLTVRENLQFSAALRLATTMTNHEKNERINRVIQELGLDKVADSKVGTQFIRGVSGGERKRTSIGMELITDPSILFLDEPTTGLDSSTANAVLLLLKRMSKQGRTIIFSIHQPRYSIFKLFDSLTLLASGRLMFHGPAQEALGYFESAGYHCEAYNNPADFFLDIINGDSTAVALNREEDFKATEIIEPSKQDKPLIEKLAEIYVNSSFYKETKAELHQLSGGEKKKKITVFKEISYTTSFCHQLRWVSKRSFKNLLGNPQASIAQIIVTVVLGLVIGAIYFGLKNDSTGIQNRAGVLFFLTTNQCFSSVSAVELFVVEKKLFIHEYISGYYRVSSYFLGKLLSDLLPMRMLPSIIFTCIVYFMLGLKPKADAFFVMMFTLMMVAYSASSMALAIAAGQSVVSVATLLMTICFVFMMIFSGLLVNLTTIASWLSWLQYFSIPRYGFTALQHNEFLGQNFCPGLNATGNNPCNYATCTGEEYLVKQGIDLSPWGLWKNHVALACMIVIFLTIAYLKLLFLKKYS
Km ([7]; other: BCRP vesicles): 1340 ± 1450 µM

B2: human MRP4 (Homo sapiens) (protein)
chain: MLPVYQEVKPNPLQDANLCSRVFFWWLNPLFKIGHKRRLEEDDMYSVLPEDRSQHLGEELQGFWDKEVLRAENDAQKPSLTRAIIKCYWKSYLVLGIFTLIEESAKVIQPIFLGKIINYFENYDPMDSVALNTAYAYATVLTFCTLILAILHHLYFYHVQCAGMRLRVAMCHMIYRKALRLSNMAMGKTTTGQIVNLLSNDVNKFDQVTVFLHFLWAGPLQAIAVTALLWMEIGISCLAGMAVLIILLPLQSCFGKLFSSLRSKTATFTDARIRTMNEVITGIRIIKMYAWEKSFSNLITNLRKKEISKILRSSCLRGMNLASFFSASKIIVFVTFTTYVLLGSVITASRVFVAVTLYGAVRLTVTLFFPSAIERVSEAIVSIRRIQTFLLLDEISQRNRQLPSDGKKMVHVQDFTAFWDKASETPTLQGLSFTVRPGELLAVVGPVGAGKSSLLSAVLGELAPSHGLVSVHGRIAYVSQQPWVFSGTLRSNILFGKKYEKERYEKVIKACALKKDLQLLEDGDLTVIGDRGTTLSGGQKARVNLARAVYQDADIYLLDDPLSAVDAEVSRHLFELCICQILHEKITILVTHQLQYLKAASQILILKDGKMVQKGTYTEFLKSGIDFGSLLKKDNEESEQPPVPGTPTLRNRTFSESSVWSQQSSRPSLKDGALESQDTENVPVTLSEENRSEGKVGFQAYKNYFRAGAHWIVFIFLILLNTAAQVAYVLQDWWLSYWANKQSMLNVTVNGGGNVTEKLDLNWYLGIYSGLTVATVLFGIARSLLVFYVLVNSSQTLHNKMFESILKAPVLFFDRNPIGRILNRFSKDIGHLDDLLPLTFLDFIQTLLQVVGVVSVAVAVIPWIAIPLVPLGIIFIFLRRYFLETSRDVKRLESTTRSPVFSHLSSSLQGLWTIRAYKAEERCQELFDAHQDLHSEAWFLFLTTSRWFAVRLDAICAMFVIIVAFGSLILAKTLDAGQVGLALSYALTLMGMFQWCVRQSAEVENMMISVERVIEYTDLEKEAPWEYQKRPPPAWPHEGVIIFDNVNFMYSPGGPLVLKHLTALIKSQEKVGIVGRTGAGKSSLISALFRLSEPEGKIWIDKILTTEIGLHDLRKKMSIIPQEPVLFTGTMRKNLDPFNEHTDEELWNALQEVQLKETIEDLPGKMDTELAESGSNFSVGQRQLVCLARAILRKNQILIIDEATANVDPRTDELIQKKIREKFAHCTVLTIAHRLNTIIDSDKIMVLDSGRLKEYDEPYVLLQNKESLFYKMVQQLGKAEAAALTETAKQVYFKRNYPHIGHTDHMVTNTSNGQPSTLTIFETAL
Km ([7]; other: MRP4 vesicles): 15300 ± 44100 µM
